row,Compound,melting point [°C]
1,CC(C)(Sc1ccc2c(-c3ccccc3F)noc2c1Cl)C(=O)O,149
2,O=c1c2ccc(F)cc2nc(C(S)c2ncnc3[nH]cnc23)n1-c1ccccc1Cl (configuration not stated),151 to 154
3,CN1CCCC(c2cccc3ccc(N)cc23)C1 (configuration not stated),117 to 120
4,COc1ccc(C(=O)O)c(OC(C)C)c1Br,109 to 110
5,O=c1[nH]c(-c2ccccc2)c(-c2ccncc2)o1,300
6,CNC(=O)C(=O)CCCCCCc1cnc(-c2ccc(Br)cc2)o1,90 to 92
7,Cc1sc(-c2ccccc2)nc1COc1cc(COc2ncccc2CC(=O)O)on1,109 to 110
8,NC(=NO)c1ccc(O)c(O)c1,193
9,CCCCCCCCCCOc1cc(C(=O)O)c(OCCCCCCCCCC)cc1C(=O)O,136 to 137
10,Nc1ccc(C2=NN3CCCC3Cc3cc4c(cc32)OCO4)cc1 (configuration not stated),153 to 155
11,O=C(CCCN1CCC(c2ccccc2Cc2ccccc2)CC1)c1ccc(F)cc1,100 to 102
12,c1cn(-c2nc(N3CCOCC3)nc(N3CCOCC3)n2)cn1,248 to 250
13,N#CNC(=N)NC1CC1,106
14,COc1cc(NC(=O)Nc2ccccc2)cc(Cl)n1,161 to 162
15,N#CCc1cccc(-c2ccc(OCCCC(=O)NO)cc2)c1,140 to 144
16,CCc1c(-c2ccc(N3CCN(C)CC3)nn2)ssc1=S,182
17,Cn1ncc2c1-c1c(Oc3ccc4c(c3)OCO4)sc(C(=O)c3cccnc3)c1CC2,180 to 182
18,N#CCC(=O)NCc1ccc(Cl)c(Cl)c1,144 to 145
19,Cc1cc(C)c(S(=O)(=O)N(C)c2ccccc2CSc2nccn2-c2ccccn2)c(C)c1,131 to 133
20,Oc1ccc(N=Cc2ccccc2)cc1,182 to 183
21,CCOC(=O)/C=C(C)/C=C/C=C(C)/C=C(/F)c1c(C)cc(OC)c(C)c1C,74 to 87
22,CC(C)(C)NS(=O)(=O)c1ccsc1C1=CC(=O)CCC1,157 to 158
23,O=C(NCO)c1cncc([N+](=O)[O-])c1,145 to 146
24,CNS(=O)(=O)N1C[C@H](SC(c2ccccc2)(c2ccccc2)c2ccccc2)C[C@H]1COCc1ccccc1,140 to 142

row,Compound,melting point [°C]
1,COc1ccccc1CN[C@H]1CCCN[C@H]1c1cc(Br)cc(Br)c1 (relative stereo),> 240
2,COC(=O)[C@]1(F)[C@H]2[C@H](O)CC(=O)[C@H]21,61 to 62
3,CCN1c2ncc(C#Cc3ccccc3)cc2C(=O)N(C)c2cccnc21,228 to 229
4,C=CCSc1nc(O)ns1,84
5,C=C(c1ccc(Br)cc1)c1ccc(N(C)C)cc1,126 to 127
6,N#Cc1ccc(CBr)c(C#N)c1,106
7,CC(C)(C)[Si](C)(C)N1C(=O)CC1CC(=O)CC(=O)OCc1ccc([N+](=O)[O-])cc1 (configuration not stated),65 to 66.5
8,Cc1ccc(N2CCN(c3c(C)c(C)c4c(c3C)CC(C)(C)O4)CC2)cc1Cl,146 to 148
9,CN1C(=O)CC[C@]2(C)c3ccc(-c4cc(C(C)(C)C)c(O)c(C(C)(C)C)c4)cc3CC[C@@H]12,> 265
10,C=CCN(c1nc(-c2cc3ccccc3[nH]c2=O)cs1)S(=O)(=O)c1ccccc1,214 to 216
11,NC(=O)C1CCN(c2ncncc2Br)CC1,188 to 190
12,C[C@H]1COC(=O)N1c1nc(-c2ccc(C#N)cc2)cs1,205 to 207
13,Cc1c(Cl)ccc(S(C)(=O)=O)c1Cl,125 to 127
14,Cc1ccc(-c2c(NS(=O)(=O)c3ccc(C(C)(C)C)cc3)ncnc2OCCOc2ncc(CCc3ccccc3)cn2)cc1,158 to 160
15,O[C@H]1COC(c2ccc3c(c2)OCO3)=N[C@@H]1c1ccccc1 (racemic),137
16,CNc1nc(-c2cccc3ccccc23)co1,164 to 166
17,CNC(=NO)Nc1ccccc1,95 to 96
18,O=C([C@H]1CN(Cc2ccccc2)CCN1C(=O)NC1CCCCC1)N(CCCn1ccnc1)Cc1ccccc1,89.1
19,CCN1CCC(c2c[nH]c3ccc(NC(=N)c4cccs4)cc23)CC1,150 to 152
20,CCOC(=O)c1ccc(NS(C)(=O)=O)c(Oc2ccc(F)cc2F)c1,111 to 113
21,O=S1NC(Cc2ccc3c(Cl)cccc3c2)=NO1 (configuration not stated),164 to 165
22,CCOC(=O)N(O)Cc1cccc(Nc2ccccc2C(=O)OC)c1C,101 to 103
23,COC1CCN(c2cc3c(cc2C#Cc2ccccc2)NC(=O)CC(c2cccc(C#N)c2)=N3)CC1,250 to 251
24,Cc1c([N+](=O)[O-])ccc(OCc2ccccc2)c1Cl,73 to 74.5

row,Compound,melting point [°C]
1,CC(C)[C@@H](CO)C[C@H](O)[C@H](CC1CCCCC1)NC(=O)OCc1ccccc1,113 to 114
2,N#CN=C(Nc1cccnc1)NC1(c2ccccc2)CC=CC1,285 to 288
3,Cn1c(COc2ccc(CC3SC(=O)NC3=O)cc2)nc2ccc(Oc3cccc(NC(=O)Nc4cccc(C#N)c4)c3)cc21 (configuration not stated),148 to 154
4,COC(CCl)NC(=O)c1ccccc1 (configuration not stated),76.9 to 77.7
5,COCCc1sc(C(O)(c2nc(C)c(CCOC)s2)C(F)(F)F)nc1C,68 to 69
6,Cc1cc(C(O)(c2ccc(OC(F)(F)F)cc2)C(F)(F)F)ccc1N (configuration not stated),127 to 128
7,CC(=O)c1c(C)nc2ccccc2c1NCc1cccc(Br)c1,109
8,O=C(O)c1cc(NC(=O)C(CS)Cc2ccccc2)ccc1O (configuration not stated),206 to 209
9,S=C(Nc1cccc(Br)c1)N1CCCSC1c1ccccc1 (configuration not stated),135 to 137
10,CCCCCCCCCCCCCCCCCCOc1cc(N(CC(=O)OC)CC(=O)OC)cc(S(=O)CC(=O)OC)c1 (configuration not stated),81 to 83
11,Cc1nc(NCc2ccccc2)sc1C(=O)NCc1ccccc1,169 to 172
12,CC1(C)CC(OC(=O)CCC(=O)OC2CC(C)(C)N(OC3CCCCC3)C(C)(C)C2)CC(C)(C)N1OC1CCCCC1,122 to 126
13,CN(C)CCC(c1ccc(C(=O)NN)cc1)c1ncc[nH]1 (configuration not stated),168 to 170
14,CNn1cc(C(=O)O)c(=O)c2cc(F)c(N3CCC(N)C3)c(F)c21 (configuration not stated),210 to 211
15,CN1CCC(=C2c3ccccc3C=Cc3ccc(C#N)cc32)CC1,141 to 146
16,COc1ccc(C(=O)O)c2ccc(C(F)(F)F)nc12,248 to 249
17,CCCCCN(C)C12CN3CN(CN(C3)C1)C2,30 to 31
18,CCOC(=O)COc1ccc(Cn2c(-c3ccc(OC4CCCC4)cc3)c(C)c3cc(OCc4ccccc4)ccc32)cc1,96 to 98
19,Cc1c(-c2ccc(NC(=O)OCC(C)C)cc2)nc2n1CCc1ccccc1C2OC1CCN(C)CC1 (configuration not stated),196
20,O=C(NC1Cc2ccc([N+](=O)[O-])cc2C1)c1ccc(F)cc1 (configuration not stated),167
21,CS(=O)(=O)c1cccc(NC(=O)c2cnn3c(C(F)(F)F)cc(-c4ccc(OC(F)(F)F)cc4)nc23)c1,245
22,CC(C)(C)c1cc(C(=O)Nc2cnc3ccc(Cl)cc3c2-c2ccccc2)cc(C(C)(C)C)c1O,232 to 235
23,CC(=O)c1cc2c(cc1NC(=O)c1sccc1S(=O)(=O)Nc1onc(C)c1Cl)OCO2,191 to 193
24,C/C(=C\c1ccc(P(=O)(O)O)cc1)c1ccc2c(c1)C(C)(C)CCC2(C)C,208 to 209

# Source: a melting point compilation (Tetko et al.; mined from patent text by program, amines drawn as free bases though some values may be those of a salt)
